Test [1] deals with Cathepsin S (UniProt P25774). In words: Cathepsin enzyme inhibition assay (fluorogenic peptide substrate Z-Val-Val-Arg-AMC), Cathepsin S. To be noted: enzyme 1 nM, substrate 20 μM, pH 6.5; read-out: CatS IC50. In kind it is biochemical, human and mouse. Summed up:
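Human or mouse cathepsin S (1 nM) was run in 100 mM potassium phosphate pH 6.5 with 5 mM EDTA, 0.001% Triton X-100 and 5 mM DTT. The rise in AMC fluorescence from cleavage was measured, and IC50 values were calculated by standard methods and expressed in μM.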

The target of test [2] is Cat L (UniProt P07711). In words: Cathepsin enzyme inhibition assay (fluorogenic peptide substrate Z-Val-Val-Arg-AMC), Cathepsin L. In kind it is biochemical, human and mouse. To be noted: for IC50: enzyme 1 nM, substrate 20 μM, pH 6.5, read-out: CatL IC50; for CatL, % @25 uM: @25 uM compound. The gist of the method: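 Cathepsin L at 1 nM was mixed with compound, then started with 20 μM Z-Val-Val-Arg-AMC in pH 6.5 potassium phosphate with EDTA, Triton X-100 and 5 mM DTT. AMC fluorescence (ex 360/em 465 nm) was followed over 20 min. IC50 is given in μM.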

For `Cc1cc(N2C[C@H](S(=O)(=O)c3ccccc3Cl)C[C@H]2C(=O)NC2(C#N)CC2)n(C2CCSCC2)n1` [Example 465, (2S,4R)-4-(2-chlorophenylsulfonyl)-N-(1-cyanocyclopropyl)-1-(3-methyl-1-(tetrahydro-2H-thiopyran-4-yl)-1H-pyrazol-5-yl)pyrrolidine-2-carboxamide], the figures for the 50% inhibitory concentration (IC50) in test [1] and in test [2] were 3.05 nM and 2.74 µM, respectively.
For the molecule `Cc1cc(N2C[C@H](S(C)(=O)=O)C[C@H]2C(=O)NC2(C#N)CC2)n(CC(F)(F)F)n1` [Example 466, (2S,4R)-4-Methanesulfonyl-1-[5-methyl-2-(2,2,2-trifluoro-ethyl)-2H-pyrazol-3-yl]-pyrrolidine-2-carboxylic acid (1-cyano-cyclopropyl)-amide], in test [1], the concentration for half-maximal inhibition (IC50) stood at 8600 nM. Besides, the “CatL, % @25 uM” value in test [2] is 95% @25 uM.
For `Cc1cc(N2C[C@H](S(=O)(=O)CC3CC3)C[C@H]2C(=O)NC2(C#N)CC2)n(CC(F)(F)F)n1` [Example 467, (2S,4R)-4-Cyclopropylmethanesulfonyl-1-[5-methyl-2-(2,2,2-trifluoro-ethyl)-2H-pyrazol-3-yl]-pyrrolidine-2-carboxylic acid (1-cyano-cyclopropyl)-amide], in that order: 2080 nM and 95% @25 uM.
As for `Cc1cc(N2C[C@H](S(=O)(=O)CC3CC3)C[C@H]2C(=O)NC2(C#N)CC2)n(-c2ccc(C(F)(F)F)cc2)n1` [Example 469, (2S,4R)-4-Cyclopropylmethanesulfonyl-1-[5-methyl-2-(4-trifluoromethyl-phenyl)-2H-pyrazol-3-yl]-pyrrolidine-2-carboxylic acid (1-cyano-cyclopropyl)-amide], in test [1], the IC50 worked out at 840 nM. For the same molecule, in test [2], the “CatL, % @25 uM” value was found to be 97% @25 uM.
For `Cc1cc(N2C[C@H](S(=O)(=O)CC3CC3)C[C@H]2C(=O)NC2(C#N)CC2)n(CCc2ccccc2)n1` [Example 470, (2S,4R)-4-Cyclopropylmethanesulfonyl-1-(5-methyl-2-phenethyl-2H-pyrazol-3-yl)-pyrrolidine-2-carboxylic acid (1-cyano-cyclopropyl)-amide], in that order: 2790 nM and 94% @25 uM.
With `N#CC1(NC(=O)[C@@H]2C[C@@H](S(=O)(=O)c3ccccc3Cl)CN2C(=O)C2(Oc3ccc(Cl)cc3)CC2)CC1` [Example 473, (2S,4R)-4-(2-Chloro-benzenesulfonyl)-1-[1-(4-chloro-phenoxy)-cyclopropanecarbonyl]-pyrrolidine-2-carboxylic acid (1-cyano-cyclopropyl)-amide], the IC50 in test [1] was determined as 70 nM; in test [2] it was 4.41 µM.
In the same order, the values of `Cc1cc(N2C[C@H](S(=O)(=O)c3ccccc3Cl)C[C@H]2C(=O)NC2(C#N)CC2)n(CCCc2ccccc2)n1` [Example 474, (2S,4R)-4-(2-Chloro-benzenesulfonyl)-1-[5-methyl-2-(3-phenyl-propyl)-2H-pyrazol-3-yl]-pyrrolidine-2-carboxylic acid (1-cyano-cyclopropyl)-amide] are 2.4 nM and 1.54 µM.
In the same order, the values of `Cc1cc(N2C[C@H](S(=O)(=O)c3ccccc3Cl)C[C@H]2C(=O)NC2(C#N)CC2)n(Cc2cncn2C)n1` [Example 476, (2S,4R)-4-(2-Chloro-benzenesulfonyl)-1-[5-methyl-2-(3-methyl-3H-imidazol-4-ylmethyl)-2H-pyrazol-3-yl]-pyrrolidine-2-carboxylic acid (1-cyano-cyclopropyl)-amide] are 6.6 nM and 4.76 µM.
In the same order, the values of `Cc1cc(N2C[C@H](S(=O)(=O)c3ccccc3Cl)C[C@H]2C(=O)NC2(C#N)CC2)n(C2CCCCC2)n1` [Example 477, (2S,4R)-4-(2-Chloro-benzenesulfonyl)-1-(2-cyclohexyl-5-methyl-2H-pyrazol-3-yl)-pyrrolidine-2-carboxylic acid (1-cyano-cyclopropyl)-amide] are 0.6 nM and 0.318 µM.
`Cc1cc(N2C[C@H](S(=O)(=O)c3ccccc3Cl)C[C@H]2C(=O)NC2(C#N)CC2)n(C2CCOCC2)n1` [Example 478, (2S,4R)-4-(2-Chloro-benzenesulfonyl)-1-[5-methyl-2-(tetrahydro-pyran-4-yl)-2H-pyrazol-3-yl]-pyrrolidine-2-carboxylic acid (1-cyano-cyclopropyl)-amide]: the IC50 came out at 3.1 nM in test [1] and 3.67 µM in test [2].
Consider `Cc1cc(N2C[C@H](S(=O)(=O)c3ccccc3Cl)C[C@H]2C(=O)NC2(C#N)CC2)n(C2CCS(=O)(=O)CC2)n1` [Example 479, (2S,4R)-4-[(2-Chlorophenyl)sulfonyl]-N-(1-cyanocyclopropyl)-1-[1-(1,1-dioxidotetrahydro-2H-thiopyran-4-yl)-3-methyl-1H-pyrazol-5-yl]-L-prolinamide], for which the IC50 in test [1] came out at 3.24 nM; in test [2] it was 3.07 µM.
Consider `Cc1cc(N2C[C@H](S(=O)(=O)c3ccc(OCC(F)(F)F)cc3Cl)C[C@H]2C(=O)NC2(C#N)CC2)n(C2CCC2)n1` [Example 480, (2S,4R)-4-[2-Chloro-4-(2,2,2-trifluoro-ethoxy)-benzenesulfonyl]-1-(2-cyclobutyl-5-methyl-2H-pyrazol-3-yl)-pyrrolidine-2-carboxylic acid (1-cyano-cyclopropyl)-amide], for which the concentration for half-maximal inhibition (IC50) in test [1] amounted to 1.05 nM; in test [2] it was 5.36 µM.
In the same order, the values of `Cc1cc(N2C[C@H](S(=O)(=O)c3ccc(N4CCN(C(C)(C)C)CC4)cc3Cl)C[C@H]2C(=O)NC2(C#N)CC2)n(C2CCOCC2)n1` [Example 481, (2S,4R)-4-[4-(4-tert-Butyl-piperazin-1-yl)-2-chloro-benzenesulfonyl]-1-[5-methyl-2-(tetrahydro-pyran-4-yl)-2H-pyrazol-3-yl]-pyrrolidine-2-carboxylic acid (1-cyano-cyclopropyl)-amide] are 0.6 nM and 1.27 µM.
In the same order, the values of `Cc1cc(N2C[C@H](S(=O)(=O)c3ccc(OCC(F)(F)F)cc3Cl)C[C@H]2C(=O)NC2(C#N)CC2)n(C2CCOCC2)n1` [Example 482, (2S,4R)-4-[2-Chloro-4-(2,2,2-trifluoro-ethoxy)-benzenesulfonyl]-1-[5-methyl-2-(tetrahydro-pyran-4-yl)-2H-pyrazol-3-yl]-pyrrolidine-2-carboxylic acid (1-cyano-cyclopropyl)-amide] are 0.765 nM and 2.71 µM.
In the same order, the values of `Cc1cc(N2C[C@H](S(=O)(=O)c3ccc(N4CC(F)(F)C4)cc3Cl)C[C@H]2C(=O)NC2(C#N)CC2)n(CCc2ccccc2)n1` [Example 483, (2S,4R)-4-[2-Chloro-4-(3,3-difluoro-azetidin-1-yl)-benzenesulfonyl]-1-(5-methyl-2-phenethyl-2H-pyrazol-3-yl)-pyrrolidine-2-carboxylic acid (1-cyano-cyclopropyl)-amide] are 1.34 nM and 0.521 µM.
`Cc1cc(N2C[C@H](S(=O)(=O)c3ccc(OCC(F)(F)F)cc3Cl)C[C@H]2C(=O)NC2(C#N)CC2)n(CCc2ccccc2)n1` [Example 484, (2S,4R)-4-[2-Chloro-4-(2,2,2-trifluoro-ethoxy)-benzenesulfonyl]-1-(5-methyl-2-phenethyl-2H-pyrazol-3-yl)-pyrrolidine-2-carboxylic acid (1-cyano-cyclopropyl)-amide]: the figures for the IC50 in test [1] and in test [2] were 3.31 nM and 1.55 µM, respectively.
For `Cc1cc(N2C[C@H](S(=O)(=O)c3ccc(N4CCN(C(C)(C)C)CC4)cc3Cl)C[C@H]2C(=O)NC2(C#N)CC2)n(CCc2ccccc2)n1` [Example 485, (2S,4R)-4-[4-(4-tert-Butyl-piperazin-1-yl)-2-chloro-benzenesulfonyl]-1-(5-methyl-2-phenethyl-2H-pyrazol-3-yl)-pyrrolidine-2-carboxylic acid (1-cyano-cyclopropyl)-amide], the results for the 50% inhibitory concentration (IC50) in test [1] and in test [2] were 0.9 nM and 0.275 µM, respectively.
For `N#CC1(NC(=O)[C@@H]2C[C@@H](S(=O)(=O)c3ccccc3Cl)CN2c2nc(Cl)ns2)CC1` [Example 486, (2S,4R)-4-(2-Chloro-benzenesulfonyl)-1-(3-chloro-[1,2,4]thiadiazol-5-yl)-pyrrolidine-2-carboxylic acid (1-cyano-cyclopropyl)-amide], in that order: 0.85 nM and 22 µM.
In the same order, the values of `COCCOc1ccc(S(=O)(=O)[C@@H]2C[C@@H](C(=O)NC3(C#N)CC3)N(c3cc(C)nn3C3CCOCC3)C2)c(Cl)c1` [Example 488, (2S,4R)-4-[2-Chloro-4-(2-methoxy-ethoxy)-benzenesulfonyl]-1-[5-methyl-2-(tetrahydro-pyran-4-yl)-2H-pyrazol-3-yl]-pyrrolidine-2-carboxylic acid (1-cyano-cyclopropyl)-amide] are 2.5 nM and 3.88 µM.
For `COCCOc1ccc(S(=O)(=O)[C@@H]2C[C@@H](C(=O)NC3(C#N)CC3)N(c3cc(C)nn3C3CCC3)C2)c(Cl)c1` [Example 489, (2S,4R)-4-[2-Chloro-4-(2-methoxy-ethoxy)-benzenesulfonyl]-1-(2-cyclobutyl-5-methyl-2H-pyrazol-3-yl)-pyrrolidine-2-carboxylic acid (1-cyano-cyclopropyl)-amide], in that order: 0.51 nM and 3.54 µM.
As for `Cc1cc(N2C[C@H](S(=O)(=O)c3ccc(-n4cccn4)cc3Cl)C[C@H]2C(=O)NC2(C#N)CC2)n(C2CCOCC2)n1` [Example 490], the IC50 amounted to 0.94 nM in test [1] and 4.33 µM in test [2].
Consider `Cc1cc(N2C[C@H](S(=O)(=O)c3ccc(-n4cccn4)cc3Cl)C[C@H]2C(=O)NC2(C#N)CC2)n(C2CCC2)n1` [Example 491, (2S,4R)-4-(2-Chloro-4-pyrazol-1-yl-benzenesulfonyl)-1-(2-cyclobutyl-5-methyl-2H-pyrazol-3-yl)-pyrrolidine-2-carboxylic acid (1-cyano-cyclopropyl)-amide], for which the 50% inhibitory concentration (IC50) came to 0.655 nM in test [1] and 5.28 µM in test [2].

(Values after patent US8163793B2, “Proline derivatives” (Hoffman-La Roche Inc., priority 2009, dated 2012).)
